# Test results reported in patent publication US20220324865A1 (Bayer Aktiengesellschaft, priority 2018, published 2022).
# Target: T1, human EP3 receptor (Homo sapiens, UniProt P43115)
# T1 construct: expressed in transfected cells; host or cells: CHO K1 (Chinese Hamster Ovary), stably co-transfected with Galpha16 and mitochondrial clytin
# T1 sequence (P43115 1-390): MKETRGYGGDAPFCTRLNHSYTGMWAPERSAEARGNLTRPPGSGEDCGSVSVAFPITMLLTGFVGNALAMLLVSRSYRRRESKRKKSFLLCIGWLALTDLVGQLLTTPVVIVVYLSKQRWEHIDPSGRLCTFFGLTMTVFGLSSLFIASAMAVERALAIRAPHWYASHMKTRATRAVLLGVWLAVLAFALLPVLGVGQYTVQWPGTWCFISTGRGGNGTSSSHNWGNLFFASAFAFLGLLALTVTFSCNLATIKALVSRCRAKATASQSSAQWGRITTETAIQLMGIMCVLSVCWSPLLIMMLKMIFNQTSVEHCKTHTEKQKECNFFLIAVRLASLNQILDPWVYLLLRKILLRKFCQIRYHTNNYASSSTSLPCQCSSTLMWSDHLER
# Assay: Cellular in vitro assay for determining EP3 receptor activity (human EP3 cell line, sulprostone-stimulated calcium luminescence)
# Assay type: cell-based
# Settings: CHO cells expressing human EP3 and mitochondrial Clytin; antagonist mode, sulprostone at EC50; read-out: EP3 CHO mtCLY ANTAG IC50
# Protocol: B-1. Cellular In Vitro Assay for Determining EP3 Receptor Activity
# The identification of antagonists of the EP3 receptor from humans and rats as well as the quantification of the activity of the compounds of the invention was carried out using recombinant cell lines. These cell lines originally derive from a hamsters ovary epithelial cell (Chinese Hamster Ovary, CHO K1, ATCC: American Type Culture Collection, Manassas, Va. 20108, USA). The test cell lines constitutively express the human or rat EP3 receptors. The naturally Gαi-coupled human and rat EP3 receptors were stably co-transfected with Gα16 into cells that are also stably transfected with a mitochondrial form of the calcium-sensitive photoproteins Clytin (human EP3) or Photina (rat EP3), which, after reconstitution with the cofactor coelenterazine, emit light when there are increases in free calcium concentrations (Nature 1992, 358, 325-327; Gene 1995, 153 (2), 273-274). The resulting EP3 receptor cells react to stimulation of the recombinantly expressed EP3 receptors by the agonist sulprostone with intracellular release of calcium ions, which can be quantified by the resulting photoprotein luminescence. Antagonists inhibit the receptor signaling, leading to reduced calcium release and luminescence. The bioluminescence of the cell lines is detected using a suitable luminometer (Trends Pharmacol. Sci. 1996, 17, 235-237).
# Human and Rat EP3 Cell Lines:
# On the day before the assay, the cells are plated out in culture medium (OptiMEM, 1% FCS, 2 mM glutamine, 10 mM HEPES, 5 μg/ml coelenterazine) in 384-well microtiter plates and kept in a cell incubator (96% humidity, 5% v/v CO2, 37° C.). On the day of the assay, test compounds in various concentrations are placed for 10 minutes in the wells of the microtiter plate before the agonist sulprostone at EC50 concentration is added. The resulting light signal is measured immediately in a luminometer. All concentrations are measured in quadruples.
row,IC50 [nM],Compound
1,3.1,"Cc1ccnc(C(C)NC(=O)c2nn3cc(-c4cnc5cccc(C)c5c4)[nH]c(=O)c3c2C(C)C)n1 (centres unmarked) [Example 4-47, 3-Isopropyl-N-[1-(4-methylpyrimidin-2-yl)ethyl]-6-(5-methyl-3-quinolyl)-4-oxo-5H-pyrazolo[1,5-a]pyrazine-2-carboxamide]"
2,2.9,"Cc1ccc(-c2cn3nc(C(=O)N[C@@H](c4ccc(F)cc4)C(C)(C)O)c(C)c3c(=O)[nH]2)c(F)c1C [Example 1-164, 6-(2-Fluoro-3,4-dimethylphenyl)-N-[(15)-1-(4-fluorophenyl)-2-hydroxy-2-methylpropyl]-3-methyl-4-oxo-4,5-dihydropyrazolo[1,5-a]pyrazine-2-carboxamide]"
3,1.45,"N#Cc1c(C(=O)N[C@H](CCO)c2ccc(F)cc2)nn2cc(-c3ccc4ccccc4c3)[nH]c(=O)c12 [Example 1-71, 3-Cyano-N-[(1R)-1-(4-fluorophenyl)-3-hydroxypropyl]-6-(naphthalen-2-yl)-4-oxo-4,5-dihydropyrazolo[1,5-a]pyrazine-2-carboxamide]"
4,0.95,Cc1ccc(-c2cn3nc(C(=O)NC4CC(F)(F)C4)c(C4CC4)c3c(=O)[nH]2)cc1Cl [6-255]
5,0.488,"COCc1c(C(=O)N[C@H](CCO)c2ccc(F)cc2)nn2cc(-c3ccc4ccccc4c3)[nH]c(=O)c12 [Example 1-55, N-[(1R)-1-(4-Fluorophenyl)-3-hydroxopyl]-3-(methoxymethyl)-6-(naphthalen-2-yl)-4-oxo-4,5-dihydropyrazolo[1,5-a]pyrazine-2-carboxamide]"
6,4.16,O=C(NCc1ccccc1)c1cc2c(=O)[nH]c(-c3ccc4ccccc4c3)cn2n1 [6-16]
7,1.05,"Cc1cc(-c2cn3nc(C(=O)NCCC(O)C(F)(F)F)c(C4CC4)c3c(=O)[nH]2)ccc1Cl (single isomer, unassigned) [6-311]"
8,0.78,Cc1ccc(-c2cn3nc(C(=O)NC(c4ccccc4)C(O)C(F)(F)F)cc3c(=O)[nH]2)cc1C (centres unmarked) [6-350]
9,0.28,Cc1cc(-c2cn3nc(C(=O)N[C@H](CCO)c4ccc(F)cc4)c(C4CC4)c3c(=O)[nH]2)ccc1Cl [6-343]
10,0.77,O=C(N[C@H](CN1CC(F)C1)c1ccccc1)c1cc2c(=O)[nH]c(-c3ccc4ccccc4c3)cn2n1 [6-545]
11,3.7,"CCN(CCO)CC(NC(=O)c1nn2cc(-c3cnc4cccc(C)c4c3)[nH]c(=O)c2c1C(C)C)c1ccccc1 (centres unmarked) [Example 1-41, N-[2-[Ethyl(2-hydroxyethyl)amino]-1-phenylethyl]-3-isopropyl-6-(5-methyl-3-quinolyl)-4-oxo-5H-pyrazolo[1,5-a]pyrazine-2-carboxamide]"
12,2.8,Cc1ccc(-c2cn3nc(C(=O)N[C@@H](c4ccc(F)cc4)C(C)(C)O)c(C4CC4)c3c(=O)[nH]2)c(F)c1F [6-596]
13,1.8,"Cc1c(C(=O)NC(C)c2ccccn2)nn2c(C)c(-c3ccc4ccccc4c3)[nH]c(=O)c12 (centres unmarked) [Example 3-17, 3,7-Dimethyl-6-(2-naphthyl)-4-oxo-N-[1-(2-pyridyl)ethyl]-5H-pyrazolo[1,5-a]pyrazine-2-carboxamide]"
14,1.6,Cc1ccc(-c2cn3nc(C(=O)N[C@@H](C)C4CC4)c(C4CC(F)(F)C4)c3c(=O)[nH]2)cc1Cl [6-560]
15,4.35,Cc1ccc(-c2cn3nc(C(=O)N[C@@H](c4ccccc4)C(C)(C)O)c(C(F)(F)F)c3c(=O)[nH]2)cc1F [6-143]
16,6.55,"Cc1c(C(=O)NCc2cccc(CN3CCCC3)c2)nn2c(C)c(-c3ccc4ccccc4c3)[nH]c(=O)c12 [Example 3-36, 3,7-Dimethyl-6-(naphthalen-2-yl)-4-oxo-N-({3-[(pyrrolidin-1-yl)methyl]phenyl}methyl)-4,5-dihydropyrazolo[1,5-a]pyrazine-2-carboxamide]"
17,8,"Cc1ccc([C@H](C)NC(=O)c2nn3c(C)c(-c4ccc5ccccc5c4)[nH]c(=O)c3c2C)cc1 [Example 3-20, 3,7-Dimethyl-N-[(7S)-1-(4-methylphenyl)ethyl]-6-(naphthalen-2-yl)-4-oxo-4,5-dihydropyrazolo[1,5-a]pyrazine-2-carboxamide]"
